In patent US12281119B2, “Imidazo[2,1-f][1,2,4]triazin-4-amine derivatives as TLR7 agonist” (BEIGENE, LTD., priority 2019, dated 2025) one finds EC50 data, which are given here for 30 compounds.

A value given as a limit tells only on which side of the number the result lay.

What is called EC50 is the concentration giving half of the maximal effect. Lower therefore signals an effect from little substance.

The assay has as its target T1, human TLR7 (Homo sapiens, UniProt Q9NYK1).
T1 sequence (Q9NYK1 27-1049): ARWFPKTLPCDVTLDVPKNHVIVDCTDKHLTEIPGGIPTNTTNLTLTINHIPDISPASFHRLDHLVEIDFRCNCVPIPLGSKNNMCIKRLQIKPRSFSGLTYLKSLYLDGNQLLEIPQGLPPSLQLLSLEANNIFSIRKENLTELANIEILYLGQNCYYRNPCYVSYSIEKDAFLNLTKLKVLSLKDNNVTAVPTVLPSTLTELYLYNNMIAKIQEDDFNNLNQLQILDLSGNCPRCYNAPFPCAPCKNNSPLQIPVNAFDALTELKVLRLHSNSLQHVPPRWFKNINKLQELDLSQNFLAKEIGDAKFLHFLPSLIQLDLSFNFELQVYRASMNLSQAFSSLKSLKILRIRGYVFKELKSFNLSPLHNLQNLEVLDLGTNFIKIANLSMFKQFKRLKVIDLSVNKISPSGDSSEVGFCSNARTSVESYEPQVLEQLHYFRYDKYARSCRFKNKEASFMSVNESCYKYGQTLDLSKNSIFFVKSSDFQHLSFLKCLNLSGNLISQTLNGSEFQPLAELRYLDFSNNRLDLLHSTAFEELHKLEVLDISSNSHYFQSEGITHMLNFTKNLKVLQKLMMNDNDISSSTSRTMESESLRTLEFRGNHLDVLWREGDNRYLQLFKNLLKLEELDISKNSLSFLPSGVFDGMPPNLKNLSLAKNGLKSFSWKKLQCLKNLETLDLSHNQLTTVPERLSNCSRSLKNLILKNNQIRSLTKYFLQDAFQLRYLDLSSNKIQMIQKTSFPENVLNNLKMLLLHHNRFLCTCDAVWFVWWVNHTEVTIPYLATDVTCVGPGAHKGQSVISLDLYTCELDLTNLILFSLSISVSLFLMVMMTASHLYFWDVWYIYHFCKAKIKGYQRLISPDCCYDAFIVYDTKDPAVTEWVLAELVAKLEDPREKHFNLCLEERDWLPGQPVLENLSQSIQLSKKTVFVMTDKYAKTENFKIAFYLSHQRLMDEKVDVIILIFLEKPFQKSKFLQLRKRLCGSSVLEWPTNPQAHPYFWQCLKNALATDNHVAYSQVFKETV
As to the kind of experiment: HEK293-Blue hTLR7 reporter assay (QUANTI-BLUE, SEAP readout). It is filed as cell-based. More on the design: host or cells: HEK293 (HEK-Blue-hTLR7). The following applies: HEK-Blue-hTLR7 cells, QUANTI-BLUE assay (A1-A76), 24 hrs. The protocol: HEK293-Blue hTLR7 Reporter Assay:
HEK-Blue-hTLR7 cell line (Invivogen, Cat. No. hkb-htlr7) was designed so that the expression of the secreted embryonic alkaline phosphatase (SEAP) was induced by activating NF-κ and AP-1 via stimulating human TLR7 with TLR7 agonists.
HEK-Blue-hTLR7 cells were seeded at a density of 4×10^4 cells/well in a volume of 180 μL in a 96-well plate in DMEM (Cat. No. 11965-092) supplemented with 10% (v/v) heat-inactivated fetal bovine serum (FBS) (Gibco, 10099-1441), 100 U/ml penicillin and 100 μg/ml streptomycin (Gibco, 15140122) containing […], […] and 10% (v/v) heat-inactivated fetal bovine serum. The cells were settled for 5 hrs, then treated with increasing amounts of tested compounds at 37° C. for 24 hrs. Then 20 μL of the supernatant from each well was incubated with 180 uL Quanti-blue substrate solution at 37° C. for 10-30 mins before the activity of the SEAP was determined at 620-655 nm using a spectrophotometer. The EC50 value for each compound was calculated with GraphPad Prism software using the sigmoidal dose-response function.
(In a reporter assay the amount or activity of a reporter protein is the signal.)

As to `CCCCOc1nc(N)c2ncc(Cc3ccc(CN4CCCC4)cc3)n2n1` [Compound A1, 2-butoxy-7-(4-(pyrrolidin-1-ylmethyl)benzyl)imidazo[2,1-f][1,2,4]triazin-4-amine], the concentration for a half-maximal effect (EC50) was 0.9 µM.

The compound `CCCCOc1nc(N)c2ncc(Cc3ccc(OCCCN(C)C)cc3)n2n1` [Compound A2, 2-butoxy-7-(4-(3-(dimethylamino)propoxy)benzyl)imidazo[2,1-f][1,2,4]triazin-4-amine] showed a half-maximal effective concentration (EC50) of 0.92 µM. For `CCCCOc1nc(N)c2ncc(Cc3ccc(CN4CCOCC4)cc3)n2n1` [Compound A3, 2-butoxy-7-(4-(morpholinomethyl)benzyl)imidazo[2,1-f][1,2,4]triazin-4-amine] the value was more than 10 µM. For `CCCCOc1nc(N)c2ncc(Cc3ccc(N(C)CCN(C)C)nc3)n2n1` [Compound A4, N^1-(5-((4-amino-2-butoxyimidazo[2,1-f][1,2,4]triazin-7-yl)methyl)pyridin-2-yl)-N^1,N^2,N^2-trimethylethane-1,2-diamine] the value was 1.85 µM. As for `CCCCOc1nc(N)c2ncc(Cc3ccc(CN4CCCCC4)cc3)n2n1` [Compound A5, 2-butoxy-7-(4-(piperidin-1-ylmethyl)benzyl)imidazo[2,1-f][1,2,4]triazin-4-amine], the figure is 1.27 µM. Consider `CCCCOc1nc(N)c2ncc(Cc3ccc(CN4CCN(C)CC4)cc3)n2n1` [Compound A6, 2-butoxy-7-(4-((4-methylpiperazin-1-yl)methyl)benzyl)imidazo[2,1-f][1,2,4]triazin-4-amine], for which the EC50 was 1.51 µM.

The compound `CCCCOc1nc(N)c2ncc(Cc3cccc(CN4CCCCC4)c3)n2n1` [Compound A7, 2-butoxy-7-(3-(piperidin-1-ylmethyl)benzyl)imidazo[2,1-f][1,2,4]triazin-4-amine] gave an EC50 of more than 10 µM. As for `CCCCOc1nc(N)c2ncc(Cc3ccc4c(c3)CN(C(C)C)CC4)n2n1` [Compound A9, 2-butoxy-7-((2-isopropyl-1,2,3,4-tetrahydroisoquinolin-7-yl)methyl)imidazo[2,1-f][1,2,4]triazin-4-amine], the figure is more than 10 µM; as for `CCCCOc1nc(N)c2ncc(Cc3cccc(CN4CCCC4)c3)n2n1` [Compound A11, 2-butoxy-7-(3-(pyrrolidin-1-ylmethyl)benzyl)imidazo[2,1-f][1,2,4]triazin-4-amine], more than 10 µM; as for `CCCCOc1nc(N)c2ncc(Cc3cccc(CN4CCOCC4)c3)n2n1` [Compound A12, 2-butoxy-7-(3-(morpholinomethyl)benzyl)imidazo[2,1-f][1,2,4]triazin-4-amine], more than 10 µM. As for `CCCCOc1nc(N)c2ncc(Cc3cccc(CN4CCN(C)CC4)c3)n2n1` [Compound A13, 2-butoxy-7-(3-((4-methylpiperazin-1-yl)methyl)benzyl)imidazo[2,1-f][1,2,4]triazin-4-amine], the figure is more than 10 µM; as for `CCCCOc1nc(N)c2ncc(Cc3ccccc3CN3CCOCC3)n2n1` [Compound A14, 2-butoxy-7-(2-(morpholinomethyl)benzyl)imidazo[2,1-f][1,2,4]triazin-4-amine], more than 10 µM. As to `CCCCOc1nc(N)c2ncc(Cc3ccccc3CN3CCCCC3)n2n1` [Compound A15, 2-butoxy-7-(2-(piperidin-1-ylmethyl)benzyl)imidazo[2,1-f][1,2,4]triazin-4-amine], the EC50 was more than 10 µM.

`CC(C)COc1nc(N)c2ncc(Cc3cccc(CN4CCCC4)c3)n2n1` [Compound A16, 2-isobutoxy-7-(3-(pyrrolidin-1-ylmethyl)benzyl)imidazo[2,1-f][1,2,4]triazin-4-amine] showed an EC50 of more than 10 µM. As to `COCCOc1nc(N)c2ncc(Cc3cccc(CN4CCCC4)c3)n2n1` [Compound A17, 2-(2-methoxyethoxy)-7-(3-(pyrrolidin-1-ylmethyl)benzyl)imidazo[2,1-f][1,2,4]triazin-4-amine], the EC50 is more than 10 µM. As for `Nc1nc(OCCCC(F)(F)F)nn2c(Cc3cccc(CN4CCCC4)c3)cnc12` [Compound A18, 7-(3-(pyrrolidin-1-ylmethyl)benzyl)-2-(4,4,4-trifluorobutoxy)imidazo[2,1-f][1,2,4]triazin-4-amine], the concentration for a half-maximal effect (EC50) is more than 10 µM. `CCCCOc1nc(N)c2ncc(Cc3ccccc3CN3CCCC3)n2n1` [Compound A19, 2-butoxy-7-(2-(pyrrolidin-1-ylmethyl)benzyl)imidazo[2,1-f][1,2,4]triazin-4-amine] displayed an EC50 of more than 10 µM. Take `CCCCOc1nc(N)c2ncc(Cc3ccc(CN4CCCC4)cc3F)n2n1` [Compound A20, 2-butoxy-7-(2-fluoro-4-(pyrrolidin-1-ylmethyl)benzyl)imidazo[2,1-f][1,2,4]triazin-4-amine]: a half-maximal response (EC50) required 1.75 µM. For `CCCCOc1nc(N)c2ncc(Cc3ccc(OCCCN4CCCCC4)cc3)n2n1` [Compound A21, 2-butoxy-7-(4-(3-(piperidin-1-yl)propoxy)benzyl)imidazo[2,1-f][1,2,4]triazin-4-amine] the value was 2.87 µM.

Compound `CCCCOc1nc(N)c2ncc(Cc3ccc(OCCCN4CCOCC4)cc3)n2n1` [Compound A22, 2-butoxy-7-(4-(3-morpholinopropoxy)benzyl)imidazo[2,1-f][1,2,4]triazin-4-amine] yielded an EC50 of 5.71 µM. As for `CCCCOc1nc(N)c2ncc(Cc3cccc(OCCCN(C)C)c3)n2n1` [Compound A23, 2-butoxy-7-(3-(3(dimethylamino)propoxy)benzyl)imidazo[2,1-f][1,2,4]triazin-4-amine], the figure is more than 10 µM. As for `CCCCOc1nc(N)c2ncc(Cc3ccc(F)c(OCCCN(C)C)c3)n2n1` [Compound A24, 2-butoxy-7-(3-(3-(dimethylamino)propoxy)-4-fluorobenzyl)imidazo[2,1-f][1,2,4]triazin-4-amine], the figure is more than 10 µM; as for `CCCCOc1nc(N)c2ncc(Cc3cccc(-c4ccc(CN5CCCC5)cc4)c3)n2n1` [Compound A25, 2-butoxy-7-((4′-(pyrrolidin-1-ylmethyl)-[1,1′-biphenyl]-3-yl)methyl)imidazo[2,1-f][1,2,4]triazin-4-amine], more than 10 µM; as for `CCCCOc1nc(N)c2ncc(Cc3cc(CN4CCCC4)ccc3F)n2n1` [Compound A26, 2-butoxy-7-(2-fluoro-5-(pyrrolidin-1-ylmethyl)benzyl)Imidazo[2,1-f][1,2,4]triazin-4-amine], more than 10 µM.

`CCCCOc1nc(N)c2ncc(Cc3ccccc3OCCCN(C)C)n2n1` [Compound A27, 2-butoxy-7-(2-(3-(dimethylamino)propoxy)benzyl)imidazo[2,1-f][1,2,4]triazin-4-amine] returned an EC50 of more than 10 µM.

Compound `CCCCOc1nc(N)c2ncc(Cc3ccc(OCCCN4CCCC4)cc3)n2n1` [Compound A28, 2-butoxy-7-(4-(3-(pyrrolidin-1-yl)propoxy)benzyl)imidazo[2,1-f][1,2,4]triazin-4-amine] gave an EC50 of 1.79 µM. For `CCCCOc1nc(N)c2ncc(Cc3ccc(OCCCN(CC)CC)cc3)n2n1` [Compound A29, 2-butoxy-7-(4-(3-(diethylamino)propoxy)benzyl)imidazo[2,1-f][1,2,4]triazin-4-amine] the value was 2.6 µM. As for `CCCCOc1nc(N)c2ncc(Cc3ccc(-c4ccc(CN5CCCC5)cc4)cc3)n2n1` [Compound A30, 2-butoxy-7-((4′-(pyrrolidin-1-ylmethyl)-[1,1′-biphenyl]-4-yl)methyl)imidazo[2,1-f][1,2,4]triazin-4-amine], the EC50 is 3.52 µM. In the case of `CCCCOc1nc(N)c2ncc(Cc3ccc(OCCCN)cc3)n2n1` [Compound A31, 7-(4-(3-aminopropoxy)benzyl)-2-butoxyimidazo[2,1-f][1,2,4]triazin-4-amine], the EC50 was more than 10 µM.

`CCCCOc1nc(N)c2ncc(Cc3ccc(OCCCN(C)C)nc3)n2n1` [Compound A32, 2-butoxy-7-((6-(3-(dimethylamino)propoxy)pyridin-3-yl)methyl)imidazo[2,1-f][1,2,4]triazin-4-amine]: the half-maximal effective concentration (EC50) stood at 0.861 µM.
